Experimental data from patent US20230276831A1, “Food/Beverage Article” (Kikkoman Corporation, priority 2020, published 2023).

Tested on: Lactobacillus rennini (DSM 20253)
Assay: Antimicrobial action of licoricidin in soy sauce at various pH (Test Example 5)
Format: cell-based
Set-up: key: A: The bacterial count decreases to less than 10% of the bacterial count of the control group.; B: The bacterial count decreases to 10% or more and less than 50% of the bacterial count of the control group.; C: The bacterial count decreases to 50% or more and less than 100% of the bacterial count of control group.; D: The bacterial count is the same as the bacterial count of the control group
Conditions: salt 0% (w/v)
Procedure: Commercially available whole soybean soy sauce (produced by Kikkoman Corporation) was electrodialyzed and then concentrated under reduced pressure to obtain soy sauce at a salt concentration of 0% (w/v) and an alcohol concentration of 0% (v/v). Then, salt and/or alcohol was added to the above-mentioned obtained soy sauce, and hydrochloric acid or an aqueous sodium hydroxide solution was then added to adjust the pH to a desired pH. Germfree purified water was added, and the mixture was then heat-treated to produce soy sauce at the salt concentration, the alcohol concentration, and the pH shown in the following Table 17.
Licoricidin (produced by ChemFaces) was added to each of the obtained soy sauces to concentrations of 1 ppm, 5 ppm, 10 ppm, 25 ppm, and 50 ppm. Lactic acid bacteria (Lactobacillus rennini (DSM 20253)) were then added to 10^6 to 10^7 cells/mL and cultured at 30° C. for 7 days. After the culture, the number of lactic acid bacteria was measured using the GAM agar medium “Nissui”. Soy sauce to which licoricidin was not added was used as a control group, and the antimicrobial activity was evaluated in comparison with the number of lactic acid bacteria in the control group. The evaluation was performed using the same criterion as in Test Example 4.

Structure (SMILES): COc1c(CC=C(C)C)c(O)cc2c1C[C@H](c1ccc(O)c(CC=C(C)C)c1O)CO2 [Licoricidin, 4-[(R)-7-hydroxy-5-methoxy-6-(3-methyl-2-butenyl)chroman-3-yl]-2-(3-methyl-2-butenyl)-1,3-benzenediol]
- Antimicrobial activity (pH 4.2, alcohol 0% (v/v), licoricidin 1 ppm): B (The bacterial count decreases to 10% or more and less than 50% of the bacterial count of the control group.)
- Antimicrobial activity (pH 4.2, alcohol 0% (v/v), licoricidin 5 ppm): B (The bacterial count decreases to 10% or more and less than 50% of the bacterial count of the control group.)
- Antimicrobial activity (pH 4.2, alcohol 0% (v/v), licoricidin 10 ppm): A (The bacterial count decreases to less than 10% of the bacterial count of the control group.)
- Antimicrobial activity (pH 4.2, alcohol 0% (v/v), licoricidin 25 ppm): A (The bacterial count decreases to less than 10% of the bacterial count of the control group.)
- Antimicrobial activity (pH 4.2, alcohol 0% (v/v), licoricidin 50 ppm): A (The bacterial count decreases to less than 10% of the bacterial count of the control group.)
- Antimicrobial activity (pH 4.2, alcohol 5% (v/v), licoricidin 1 ppm): B (The bacterial count decreases to 10% or more and less than 50% of the bacterial count of the control group.)
- Antimicrobial activity (pH 4.2, alcohol 5% (v/v), licoricidin 5 ppm): A (The bacterial count decreases to less than 10% of the bacterial count of the control group.)
- Antimicrobial activity (pH 4.2, alcohol 5% (v/v), licoricidin 10 ppm): A (The bacterial count decreases to less than 10% of the bacterial count of the control group.)
- Antimicrobial activity (pH 4.2, alcohol 5% (v/v), licoricidin 25 ppm): A (The bacterial count decreases to less than 10% of the bacterial count of the control group.)
- Antimicrobial activity (pH 4.2, alcohol 5% (v/v), licoricidin 50 ppm): A (The bacterial count decreases to less than 10% of the bacterial count of the control group.)
- Antimicrobial activity (pH 4.6, alcohol 0% (v/v), licoricidin 1 ppm): C (The bacterial count decreases to 50% or more and less than 100% of the bacterial count of control group.)
- Antimicrobial activity (pH 4.6, alcohol 0% (v/v), licoricidin 5 ppm): B (The bacterial count decreases to 10% or more and less than 50% of the bacterial count of the control group.)
- Antimicrobial activity (pH 4.6, alcohol 0% (v/v), licoricidin 10 ppm): A (The bacterial count decreases to less than 10% of the bacterial count of the control group.)
- Antimicrobial activity (pH 4.6, alcohol 0% (v/v), licoricidin 25 ppm): A (The bacterial count decreases to less than 10% of the bacterial count of the control group.)
- Antimicrobial activity (pH 4.6, alcohol 0% (v/v), licoricidin 50 ppm): A (The bacterial count decreases to less than 10% of the bacterial count of the control group.)
- Antimicrobial activity (pH 4.6, alcohol 5% (v/v), licoricidin 1 ppm): C (The bacterial count decreases to 50% or more and less than 100% of the bacterial count of control group.)
- Antimicrobial activity (pH 4.6, alcohol 5% (v/v), licoricidin 5 ppm): A (The bacterial count decreases to less than 10% of the bacterial count of the control group.)
- Antimicrobial activity (pH 4.6, alcohol 5% (v/v), licoricidin 10 ppm): A (The bacterial count decreases to less than 10% of the bacterial count of the control group.)
- Antimicrobial activity (pH 4.6, alcohol 5% (v/v), licoricidin 25 ppm): A (The bacterial count decreases to less than 10% of the bacterial count of the control group.)
- Antimicrobial activity (pH 4.6, alcohol 5% (v/v), licoricidin 50 ppm): A (The bacterial count decreases to less than 10% of the bacterial count of the control group.)
- Antimicrobial activity (pH 5.0, alcohol 0% (v/v), licoricidin 1 ppm): D
- Antimicrobial activity (pH 5.0, alcohol 0% (v/v), licoricidin 5 ppm): B (The bacterial count decreases to 10% or more and less than 50% of the bacterial count of the control group.)
- Antimicrobial activity (pH 5.0, alcohol 0% (v/v), licoricidin 10 ppm): B (The bacterial count decreases to 10% or more and less than 50% of the bacterial count of the control group.)
- Antimicrobial activity (pH 5.0, alcohol 0% (v/v), licoricidin 25 ppm): A (The bacterial count decreases to less than 10% of the bacterial count of the control group.)
- Antimicrobial activity (pH 5.0, alcohol 0% (v/v), licoricidin 50 ppm): A (The bacterial count decreases to less than 10% of the bacterial count of the control group.)
- Antimicrobial activity (pH 5.0, alcohol 5% (v/v), licoricidin 1 ppm): C (The bacterial count decreases to 50% or more and less than 100% of the bacterial count of control group.)
- Antimicrobial activity (pH 5.0, alcohol 5% (v/v), licoricidin 5 ppm): B (The bacterial count decreases to 10% or more and less than 50% of the bacterial count of the control group.)
- Antimicrobial activity (pH 5.0, alcohol 5% (v/v), licoricidin 10 ppm): B (The bacterial count decreases to 10% or more and less than 50% of the bacterial count of the control group.)
- Antimicrobial activity (pH 5.0, alcohol 5% (v/v), licoricidin 25 ppm): A (The bacterial count decreases to less than 10% of the bacterial count of the control group.)
- Antimicrobial activity (pH 5.0, alcohol 5% (v/v), licoricidin 50 ppm): A (The bacterial count decreases to less than 10% of the bacterial count of the control group.)
- Antimicrobial activity (pH 5.4, alcohol 0% (v/v), licoricidin 1 ppm): D
- Antimicrobial activity (pH 5.4, alcohol 0% (v/v), licoricidin 5 ppm): D
- Antimicrobial activity (pH 5.4, alcohol 0% (v/v), licoricidin 10 ppm): C (The bacterial count decreases to 50% or more and less than 100% of the bacterial count of control group.)
- Antimicrobial activity (pH 5.4, alcohol 0% (v/v), licoricidin 25 ppm): C (The bacterial count decreases to 50% or more and less than 100% of the bacterial count of control group.)
- Antimicrobial activity (pH 5.4, alcohol 0% (v/v), licoricidin 50 ppm): C (The bacterial count decreases to 50% or more and less than 100% of the bacterial count of control group.)
- Antimicrobial activity (pH 5.4, alcohol 5% (v/v), licoricidin 1 ppm): B (The bacterial count decreases to 10% or more and less than 50% of the bacterial count of the control group.)
- Antimicrobial activity (pH 5.4, alcohol 5% (v/v), licoricidin 5 ppm): A (The bacterial count decreases to less than 10% of the bacterial count of the control group.)
- Antimicrobial activity (pH 5.4, alcohol 5% (v/v), licoricidin 10 ppm): A (The bacterial count decreases to less than 10% of the bacterial count of the control group.)
- Antimicrobial activity (pH 5.4, alcohol 5% (v/v), licoricidin 25 ppm): A (The bacterial count decreases to less than 10% of the bacterial count of the control group.)
- Antimicrobial activity (pH 5.4, alcohol 5% (v/v), licoricidin 50 ppm): A (The bacterial count decreases to less than 10% of the bacterial count of the control group.)
- Antimicrobial activity (pH 5.8, alcohol 0% (v/v), licoricidin 1 ppm): D
- Antimicrobial activity (pH 5.8, alcohol 0% (v/v), licoricidin 5 ppm): D
- Antimicrobial activity (pH 5.8, alcohol 0% (v/v), licoricidin 10 ppm): D
- Antimicrobial activity (pH 5.8, alcohol 0% (v/v), licoricidin 25 ppm): D
- Antimicrobial activity (pH 5.8, alcohol 0% (v/v), licoricidin 50 ppm): D
- Antimicrobial activity (pH 5.8, alcohol 5% (v/v), licoricidin 1 ppm): B (The bacterial count decreases to 10% or more and less than 50% of the bacterial count of the control group.)
- Antimicrobial activity (pH 5.8, alcohol 5% (v/v), licoricidin 5 ppm): A (The bacterial count decreases to less than 10% of the bacterial count of the control group.)
- Antimicrobial activity (pH 5.8, alcohol 5% (v/v), licoricidin 10 ppm): A (The bacterial count decreases to less than 10% of the bacterial count of the control group.)
- Antimicrobial activity (pH 5.8, alcohol 5% (v/v), licoricidin 25 ppm): A (The bacterial count decreases to less than 10% of the bacterial count of the control group.)
- Antimicrobial activity (pH 5.8, alcohol 5% (v/v), licoricidin 50 ppm): A (The bacterial count decreases to less than 10% of the bacterial count of the control group.)
